Data as given in US8852601B2, “Method of stimulating growth and resistance to diseases of aquatic organisms” (Centro de Ingenieria Genetica y Biotecnologia, priority 2002, dated 2014).
Marks after values point to notes of the source that are not given here. Non-standard residues stand in square brackets, D forms with d. No end group written: not given here.

Assays:
serum GH = test: Serum GH levels in tilapia injected with GHRP-6 (ELISA); format: in vivo; details: 15 min after intraperitoneal injection, 0.1 μg/gbw
Method: (§1) Fifteen tilapias with average weight 71±28 g were used for the experiment. The GHRP-6 was injected with hexapeptide at 0.1 μg/gbw. The liver and blood samples were drawn before the treatment and 15 min, 30 min, 1 h and 6 h after the peptide injection (three animals per group). The serum and liver sample were collected and stored at −70° C. until used for total RNA isolation and Northern blot analysis. A serum sample was also taken before the treatment in all animals.
Serum GH levels were determined by ELISA using two monoclonal antibodies against tilapia GH (Muñoz et al, in preparation).

tilapia IGF mRNA = test: Hepatic IGF mRNA levels in tilapia injected with GHRP-6 (Northern blot); format: in vivo; details: 0.1 μg/gbw
Method: as §1
Northern blot analysis was used to measure the relative IGF mRNA levels in tilapia injected with the peptide. Total RNA was purified from liver samples as described by Chomczynski and Sacchi (Chomczynski P, Sacchi N. Single step method of RNA isolation by acid guanidium thiocyanate-phenol-chloroform extraction. Anal Biochem 1987; 162:156-59). Twenty μg of RNA were fractionated on 1% formaldehyde agarose gels and transferred to nylon membranes (Hybond N, Amersham UK) and hybridized with a tilapia IGF-I cDNA probe and subsequently rehybridized with a human gliceraldehyde 3 phosphate dehydrogenase cDNA (GAPDH, kindly given by Dr. Bryan Williams, Cleveland Foundation, OH, USA) to normalize the signals. Hybridization signals were quantified by digital image processing of scanned gels with a Hewlett Packard Scanjet Plus scanner. Images were processed with the Bandleader computer program. […]

juvenile tilapia [1] = test: Growth promoting activity in juvenile tilapia, intraperitoneal injection; format: in vivo, Oreochromis aureus; details: intraperitoneal 0.1 μg/gbw twice a week, three weeks; P<0.05
Method: Juvenile hybrid tilapia (Oreochromis aureus) supplied by the Aquadique Aquaculture Station (Havana, Cuba) were acclimated in a 500 litters tank with re-circulating freshwater at 25° C. with constant photoperiod (14 hours light and 10 hours darkness) and fed with commercially prepared pellets (CENPALAB, Havana, Cuba). Daily rations equivalent to 5% of body weight were administered twice a day until they were used in the experiments.
GHRP-6 (BACHEM, Switzerland) was diluted in PBS and injected twice a week during three weeks at 0.1 μg per gram of fish body weight (gbw). The peptide was administered to a group of eight male tilapia with average body weight of 61±14.3 g and seven male tilapia with average body weight of 61.41±29.67 g were injected with PBS as a control group.
(§2) Body weight in grams was measured weekly. In all the experiments the animals were labeled with microchips (Stoelting Co. Wood Dale, U.S.A.).

juvenile tilapia [2] = test: Growth promoting activity in juvenile tilapia, oral intubation (non encapsulated and encapsulated peptide); format: in vivo, Oreochromis aureus
Method: as §2
GHRP-6 peptide was diluted in phosphate buffered saline (PBS) and administered through a plastic tube to the pharyngeal cavity to a group of seven male tilapia with average body weight 87.22±14.1 g. PBS was delivered to the control group (n=7, all male tilapia) with average weight 89.22±7.66 g. The treatment was done twice a week during three weeks at 0.1 μg/gbw. Body weight in grams was measured weekly. (FIG. 3)
For the encapsulation of peptide the capsules were obtained as previously reported by Knorr et al., 1988; using chitosan and alginic acid encapsulated peptide. The hexapeptide GHRP-6 was administered through a plastic tube to the pharyngeal cavity to seven male tilapia with average body weight 89.09±8.38 g. Polymer beads without peptide were administered to seven male tilapia with average weight 89.86±13.54 g as a control group. The treatment was performed twice a week at 0.14 μg/gbw. (FIG. 4)

tilapia [3] = test: Weigh of tilapia treated with GHRP-6 by immersion; format: in vivo, Oreochromis aureus; details: for Mean weigh ± DS: once a week for 45 days
Method: (§3) Tilapias (Oreochromis aureus) of 1.5 g of mean weigh were treated by immersion with two different doses of GHRP-6 (10 μg/100 ml and 100 μg/100 ml). A similar control group was treated with physiological solution.
(§4) In the experiment was measured the weigh (Table 1), biochemical blood parameters (Table 2), number of parasite in gill (Trichodinicos (Table 3) y Helmintos mongeneos (Table 4)) and humidity and protein concentration in muscle
(§5) Fifteen animals per group (3×) with mean weigh of 1 g were selected for the assay. In 9 tank of 40 liters were developed the experiment. One a week application was done for 45 days.
(§6) • Group I 10 μg/100 ml (Treatment 1) • Group II 100 μg/100 ml (Treatment 2) • Group III Control (Physiological solution)

protozoo Trichodina sp. = test: Invasion intensity and extension of Trichodina sp. in tilapia treated by immersion; format: in vivo
Method: as §3, §4, §5, §6

Helmintos monogeneos = test: Invasion intensity and extension of Helmintos monogeneos in the gill of tilapia treated by immersion; format: in vivo; details: for I: Invasion intensity: in the gill per fish
Method: as §3, §4, §5, §6

tilapia [4] = test: Humidity and protein concentration in muscle of tilapia treated by immersion; format: in vivo, Oreochromis aureus
Method: as §3, §4, §5, §6

[5] = test system: shrimp Litopenaeus schmitti larvae; test: Growth promoting activity in shrimp larvae treated by immersion; format: in vivo
Method: Three different doses of GHRP-6 were applied by immersion to groups or shrimp larvae. The application was made each three days. Four applications were made for each group, including one control group receiving bovine serum albumin (BSA). The treatment was made per 1 hour to a concentration of GHRP-6 per liter of seawater as follow: • Group 1: 0.001 mg/L • Group 2: 0.01 mg/L • Group 3: 0.1 mg/L • Group 4: 1 mg of BSA/L

[6] = test system: larvae shrimp Litopeneaus schmitti; test: Shrimp larvae treated by immersion in production conditions; format: in vivo, Litopenaeus schmitti; details: production condition, vs non-treated group
Text: FIG. 8. Growth rate of larvae shrimp Litopeneaus schmitti in production conditions treated with GHRP-6 by immersion. The experiment was follow by six week. ***t-test p<0.001. Bars indicate standard error
In production condition the survival rate of the larvae was increased in 20% in the group treated with the GHRP-6 in comparison with the non-treated group. […] On the other hand the uniformity of the animals was higher in the group treated with the hexapeptide and the variation coefficient was lower in weigh and size (FIG. 8).

[7] = Grupo I, immersion 10 μg/100 mL
[8] = Grupo II, immersion 100 μg/100 mL
[9] = comparison II-III (100 μg/100 mL vs saline), significant
[10] = comparison III-I (saline vs 10 μg/100 mL), significant
[11] = comparison III-I (saline vs 10 μg/100 mL)
[12] = 0.1 mg/L immersion, statistically significant
[13] = 0.1 mg/L, four 1 hour immersions, each three days, vs BSA control

“His-D-Trp-Ala-Trp-D-Phe-Lys-NH2 (H[dW]AW[dF]K-NH2) [GHRP-6, known GH releasing hexapeptide (GH secretagogue), bought from BACHEM]” was tested, and the “serum GH levels” value (serum GH) was “increased”, the “level of hepatic IGF mRNA” value (tilapia IGF mRNA; 30 min after intraperitoneal injection) was “increased significantly” and the “level of hepatic IGF mRNA” value (tilapia IGF mRNA; six hours after intraperitoneal injection) was “backing to the normal value”. For the same substance, the “growth (increase in growth rate) vs control” value (juvenile tilapia [1]) was “significantly stimulated growth”, the “body weight gain, encapsulated vs non encapsulated orally intubated treatment” value (juvenile tilapia [2]; comparison between both oral treatments, P<0.05) was “higher body weight gain” and the “body weight to the end of the treatment vs control” value (juvenile tilapia [2]; orally intubated encapsulated peptide) was “statistically differences in the body weight”. For the same substance, the “Mean weigh ± DS” value (tilapia [3]; [7]) was 4.56 ± 1.07 g, the “Mean weigh ± DS” value (tilapia [3]; [8]) was 4.54 ± 1.38 g and the “Statistically difference, mean weigh” value (tilapia [3]; comparison I-II (10 vs 100 μg/100 mL)) was 0.01454. The “Statistically difference, mean weigh” value (tilapia [3]; [9]) was 1.072*, the “Statistically difference, mean weigh” value (tilapia [3]; [10]) was 1.086* and the “E: Invasion extension” value (protozoo Trichodina sp.; [7]) was 100%. The “I: Invasion intensity” value (protozoo Trichodina sp.; [7]) was 7.73, the “E: Invasion extension” value (protozoo Trichodina sp.; [8]) was 84.6% and the “I: Invasion intensity” value (protozoo Trichodina sp.; [8]) was 2.80. For the same substance, the “Statistically difference, Trichodina sp. invasion” value (protozoo Trichodina sp.; comparison I-II) was “(4.42)”, the “Statistically difference, Trichodina sp. invasion” value (protozoo Trichodina sp.; [9]) was “(5.84)*” and the “Statistically difference, Trichodina sp. invasion” value (protozoo Trichodina sp.; [11]) was “(1.42)”. For the same substance, the “E: Invasion extension” value (Helmintos monogeneos; [7]) was 34.7%, the “I: Invasion intensity” value (Helmintos monogeneos; [7]) was 0.39 and the “E: Invasion extension” value (Helmintos monogeneos; [8]) was 50%. The “I: Invasion intensity” value (Helmintos monogeneos; [8]) was 0.66, the “Statistically difference, Helmintos monogeneos invasion” value (Helmintos monogeneos; comparison I-II) was “(0.304)” and the “Statistically difference, Helmintos monogeneos invasion” value (Helmintos monogeneos; comparison II-III (100 μg/100 mL vs saline)) was “(0.521)”. For the same substance, the “Statistically difference, Helmintos monogeneos invasion” value (Helmintos monogeneos; [10]) was “(0.826)*”, the “Mean humidity ± SD in muscle” value (tilapia [4]; [7]) was 82.96 ± 3.63% and the “Mean humidity ± SD in muscle” value (tilapia [4]; [8]) was 83.5 ± 3.31%. For the same substance, the “Statistically difference, humidity in muscle” value (tilapia [4]; comparison I-II) was “(0.791)”, the “Statistically difference, protein concentration” value (tilapia [4]; comparison I-II, significant) was “(1.160)*” and the “Statistically difference, humidity in muscle” value (tilapia [4]; [9]) was “(2.666)*”. The “Statistically difference, protein concentration” value (tilapia [4]; [9]) was “(1.38)*”, the “Statistically difference, humidity in muscle” value (tilapia [4]; [11]) was “(3.458)” and the “Statistically difference, protein concentration” value (tilapia [4]; [10]) was “(2.64)*”. The “number of bone rostral” value [5, 12] was “increase”, the “number of gill ramifications” value [5, 12] was “increase” and the “increase of mean size” value [5, 13] was 26%. The “increase of mean weigh” value [5, 13] was 153%, the “relation Protein/DNA in muscle” value ([5]; all treated animals vs control) was “increased” and the “relation RNA/DNA in muscle” value ([5]; all treated animals vs control) was “increased”. For the same substance, the “water content in the muscle” value ([5]; all treated animals vs control) was “lower water content in the muscle”, the increase of size [6] was 37% and the “increase of survival rate of the larvae” value [6] was 20%. For the same substance, the increase of weigh [6] was 115%, the “uniformity of the animals” value [6] was “higher” and the “variation coefficient in weigh and size” value [6] was “lower”.
